These results are taken from ChEMBL document CHEMBL3817758, “Design and synthesis of dual 5-HT1A and 5-HT7 receptor ligands” (Bioorg Med Chem, 2016).

Test in all cases: biochemical
Experiment [1] has as its target T1, 5-hydroxytryptamine receptor 2C (Rattus norvegicus, UniProt P08909).
T1 sequence (P08909 whole entry): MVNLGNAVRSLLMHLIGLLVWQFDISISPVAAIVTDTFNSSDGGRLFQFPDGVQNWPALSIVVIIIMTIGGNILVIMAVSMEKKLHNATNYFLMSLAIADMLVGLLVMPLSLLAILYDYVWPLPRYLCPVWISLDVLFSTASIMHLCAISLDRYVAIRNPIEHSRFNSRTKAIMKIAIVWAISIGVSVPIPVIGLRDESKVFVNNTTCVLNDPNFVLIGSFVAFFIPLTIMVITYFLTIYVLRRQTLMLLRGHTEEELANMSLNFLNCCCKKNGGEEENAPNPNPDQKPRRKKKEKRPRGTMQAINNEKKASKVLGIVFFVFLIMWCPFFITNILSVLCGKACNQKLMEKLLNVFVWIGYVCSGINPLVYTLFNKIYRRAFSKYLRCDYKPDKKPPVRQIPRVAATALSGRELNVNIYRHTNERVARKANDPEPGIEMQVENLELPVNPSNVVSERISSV

Another experiment deals with T2, D(4) dopamine receptor (Rattus norvegicus, UniProt P30729).
T2 sequence (P30729 whole entry): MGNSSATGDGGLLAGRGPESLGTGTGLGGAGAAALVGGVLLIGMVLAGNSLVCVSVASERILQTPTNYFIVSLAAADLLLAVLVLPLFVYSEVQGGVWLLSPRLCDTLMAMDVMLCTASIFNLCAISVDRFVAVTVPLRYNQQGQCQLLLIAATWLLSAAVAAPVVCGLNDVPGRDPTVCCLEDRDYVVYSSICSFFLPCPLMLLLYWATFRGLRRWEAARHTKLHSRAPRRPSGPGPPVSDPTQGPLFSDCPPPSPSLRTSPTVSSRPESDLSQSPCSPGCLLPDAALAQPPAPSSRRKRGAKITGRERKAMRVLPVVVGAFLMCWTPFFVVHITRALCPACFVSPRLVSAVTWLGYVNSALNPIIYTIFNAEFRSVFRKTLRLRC

Experiment [2] deals with Sodium-dependent serotonin transporter (Homo sapiens, UniProt P31645).
For a further experiment, the target named is D(2) dopamine receptor (Homo sapiens, UniProt P14416).

SMILES strings stand for the structures. Where only a bound is given, the exact number is not on record here.

Sodium-dependent serotonin transporter, sequence (P31645 whole entry): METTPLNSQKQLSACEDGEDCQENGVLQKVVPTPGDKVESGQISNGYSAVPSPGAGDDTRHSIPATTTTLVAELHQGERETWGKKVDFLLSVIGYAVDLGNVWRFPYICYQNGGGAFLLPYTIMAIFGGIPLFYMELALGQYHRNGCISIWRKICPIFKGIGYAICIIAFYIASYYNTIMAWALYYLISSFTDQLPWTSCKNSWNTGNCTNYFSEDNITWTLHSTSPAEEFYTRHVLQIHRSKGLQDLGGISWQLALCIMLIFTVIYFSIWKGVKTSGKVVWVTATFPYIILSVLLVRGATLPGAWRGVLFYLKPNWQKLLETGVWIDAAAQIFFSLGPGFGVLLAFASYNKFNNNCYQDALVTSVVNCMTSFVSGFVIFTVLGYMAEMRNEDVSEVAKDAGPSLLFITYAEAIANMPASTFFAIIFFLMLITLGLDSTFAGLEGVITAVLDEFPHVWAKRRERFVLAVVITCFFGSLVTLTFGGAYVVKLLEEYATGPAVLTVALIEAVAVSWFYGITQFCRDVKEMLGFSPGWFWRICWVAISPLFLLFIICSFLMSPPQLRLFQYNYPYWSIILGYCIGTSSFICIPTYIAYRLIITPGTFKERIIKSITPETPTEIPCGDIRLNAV
D(2) dopamine receptor, sequence (P14416 whole entry): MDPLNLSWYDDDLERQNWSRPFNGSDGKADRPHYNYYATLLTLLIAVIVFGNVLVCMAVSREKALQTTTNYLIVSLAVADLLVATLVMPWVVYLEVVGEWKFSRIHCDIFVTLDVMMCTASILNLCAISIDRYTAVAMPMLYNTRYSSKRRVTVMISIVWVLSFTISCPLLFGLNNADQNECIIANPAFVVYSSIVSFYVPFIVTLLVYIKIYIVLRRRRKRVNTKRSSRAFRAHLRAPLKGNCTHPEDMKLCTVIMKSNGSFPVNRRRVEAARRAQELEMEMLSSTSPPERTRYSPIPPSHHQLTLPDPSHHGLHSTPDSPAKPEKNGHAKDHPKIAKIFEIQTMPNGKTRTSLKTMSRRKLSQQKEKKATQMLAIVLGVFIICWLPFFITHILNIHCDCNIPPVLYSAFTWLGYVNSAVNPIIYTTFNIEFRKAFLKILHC

As usually defined, the Ki is the equilibrium dissociation constant of an inhibitor or competing ligand from its target. A high value points to a looser hold on the target. `COc1ccc(C(=O)CCCN2CCc3ccccc3C2)cc1` displayed a Ki in experiment [1] of 1.4 µM.

`NC(=O)c1ccc(C(=O)CCCN2CCc3ccccc3C2)cc1` showed a Ki in experiment [1] of 1.89 µM.

For `O=C1c2ccccc2C(=O)N1CCCCN1CCC2CCCCC2C1` (stereo not given), the Ki (at D(4) dopamine receptor; in experiment [2]; on D(2) dopamine receptor) was over 10 µM in each case.
